Key:
AAD-12 (v2) = molecular target: T1, AAD-12 (v2) (Delftia acidovorans, UniProt P83309); assay: Colorimetric phenol detection assay of AAD-12 activity; format: biochemical; conditions: for activity of AAD-12 (v2) on substrate (absorbance at 510 nm, FIG. 3): 4.4 μg AAD-12 (v2), 0.5 mM substrate, 5 minutes
T1 construct: made in house; host or cells: Pseudomonas fluorescens strain MB324 (construct pDAB739)
Procedure: Enzyme activity was measured by colorimetric detection of the product phenol using a protocol modified from that of Fukumori and Hausinger (1993) (J. Biol. Chem. 268: 24311-24317) to enable deployment in a 96-well microplate format. The colorimetric assay has been described for use in measuring the activity of dioxygenases cleaving 2,4-D and dichlorprop to release the product 2,4-dichlorophenol. The color yield from several phenols was compared to that of 2,4-dichlorophenol using the detection method previously described to ascertain which phenol products could be readily detected. […] Pyridinols derived from fluroxypyr and triclopyr produced no significant color. The color yield of 2,4-dichlorophenol was linear and proportional to the concentration of phenol in the assay up to ˜500 μM.
Assays were initiated by addition of the aryloxyalkanoate substrate, enzyme or α-ketoglutarate at time zero. After 5 minutes of incubation at 25° C., the reaction was terminated by addition of 30 μl of a 1:1:1 mix of 50 mM Na EDTA; pH 10 buffer (3.09 g boric acid+3.73 g KCl+44 ml 1 N KOH) and 0.2% 4-aminoantipyrine. Then 10 μl 0.8% potassium ferricyanide was added and after 5 or 10 min, the absorbance at 510 nm was recorded in a spectrophotometric microplate reader. Blanks contained all reagents except for enzyme to account for the occasional slight contamination of some of the substrates by small amounts of phenols.
The results are shown in FIG. 3, which illustrates activity of AAD-12 (v2) on 2,4-D and enantiomers of dichlorprop. 4.4 μg AAD-12 (v2) was incubated with 0.5 mM substrate (1 mM for (R,S)-dichlorprop) and the reaction initiated by addition of α-ketoglutarate. After 5 minutes, the reaction was quenched, and the absorbance at 510 nm determined after addition of colorimetric detection reagents. The background value without enzyme was subtracted.

[1] = tested on: Homozygous AAD-1 (v3) gene T4 plants (Arabidopsis); assay: T1 Arabidopsis postemergence herbicide dose response, AAD-1 comparison; format: in vivo, Arabidopsis thaliana
Description: T1 plants were then randomly assigned to various rates of 2,4-D. For Arabidopsis, 50 g ae/ha 2,4-D is an effective dose to distinguish sensitive plants from ones with meaningful levels of resistance. Elevated rates were also applied to determine relative levels of resistance (50, 200, 800, or 3200 g ac/ha). Tables 10 and 11 show comparisons drawn to an aryloxyalkanoate herbicide resistance gene (AAD-1 (v3)) previously described in PCT/US2005/014737.
All auxin herbicide applications were made using the DeVilbiss sprayer as described above to apply 703 L/ha spray volume (0.4 ml solution/3-inch pot) or applied by track sprayer in a 187 L/ha spray volume. 2,4-D used was either technical grade (Sigma, St. Louis, Mo.) dissolved in DMSO and diluted in water (<1% DMSO final concentration) or the commercial dimethylamine salt formulation (456 g ac/L, NuFarm, St Joseph, Mo.). Dichlorprop used was commercial grade formulated as potassium salt of R-dichlorprop (600 g ai/L, AH Marks). As herbicide rates increased beyond 800 g ae/ha, the pH of the spray solution became exceedingly acidic, burning the leaves of young, tender Arabidopsis plants and complicating evaluation of the primary effects of the herbicides. It became standard practice to apply these high rates of herbicides in 200 mM HEPES buffer, pH 7.5.
The first Arabidopsis transformations were conducted using AAD-12 (v1) (plant optimized gene). T1 transformants were first selected from the background of untransformed seed using a glufosinate selection scheme. Over 300,000 T1 seed were screened and 316 glufosinate resistant plants were identified (PAT gene), equating to a transformation/selection frequency of 0.10% which lies in the normal range of selection frequency of constructs where PAT+Liberty are used for selection. T1 plants selected above were subsequently transplanted to individual pots and sprayed with various rates of commercial aryloxyalkanoate herbicides. Table 11 compares the response of AAD-12 (v1) and control genes to impart 2,4-D resistance to Arabidopsis T1 transformants. Response is presented in terms of % visual injury 2 WAT. […] Since each T1 is an independent transformation event, one can expect significant variation of individual T1 responses within a given rate. An arithmetic mean and standard deviation is presented for each treatment. The range in individual response is also indicated in the last column for each rate and transformation. PAT/Cry1F-transformed Arabidopsis served as an auxin-sensitive transformed control. The AAD-12 (v1) gene imparted herbicide resistance to individual T1 Arabidopsis plants. Within a given treatment, the level of plant response varied greatly and can be attributed to the fact each plant represents an independent transformation event. Of important note, at each 2,4-D rate tested, there were individuals that were unaffected while some were severely affected. […] Injury levels tend to be greater and the frequency of uninjured plants was lower at elevated rates up to 3,200 g ae/ha (or 6× field rate). Also at these high rates, the spray solution becomes highly acidic unless buffered. Arabidopsis grown mostly in the growth chamber has a very thin cuticle and severe burning effects can complicate testing at these elevated rates. Nonetheless, many individuals have survived 3.200 g ac/ha 2,4-D with little or no injury.

[2] = 50 g ae/ha 2,4-D postemergence, 2 WAT
[3] = 200 g ae/ha 2,4-D postemergence, 2 WAT
[4] = 800 g ae/ha 2,4-D postemergence, 2 WAT
[5] = 3200 g ae/ha 2,4-D postemergence, 2 WAT
[6] = 50 g ae/ha R-dichlorprop postemergence
[7] = 200 g ae/ha R-dichlorprop postemergence
[8] = 800 g ae/ha R-dichlorprop postemergence
[9] = 3200 g ae/ha R-dichlorprop postemergence

T1 sequence (P83309 whole entry, looked up, natural form): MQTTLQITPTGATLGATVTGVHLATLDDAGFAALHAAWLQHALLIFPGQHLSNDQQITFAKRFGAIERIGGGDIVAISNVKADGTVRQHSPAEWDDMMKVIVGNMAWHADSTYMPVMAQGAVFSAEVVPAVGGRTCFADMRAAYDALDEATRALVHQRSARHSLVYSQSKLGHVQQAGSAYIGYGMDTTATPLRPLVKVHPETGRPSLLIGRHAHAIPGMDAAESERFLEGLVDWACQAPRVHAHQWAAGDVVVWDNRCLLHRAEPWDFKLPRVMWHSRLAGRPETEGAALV

O=C(O)COc1ccc(Cl)cc1Cl [2,4-D, 2,4-dichlorophenoxyacetic acid]
activity of AAD-12 (v2) on substrate (absorbance at 510 nm, FIG. 3) (AAD-12 (v2)): equivalent to that on (S)-dichlorprop | inhibition at 2000 µM (AAD-12 (v2); read-out: Substrate inhibition at 2 mM): 55% | % Injury 20-40% (number of individuals) [1, 2]: 0 | % Injury <20% (number of individuals) [1, 2]: 10 | % Injury >40% (number of individuals) [1, 2]: 0 | % Injury Ave [1, 2]: 0% | % Injury 20-40% (number of individuals) [1, 3]: 0 | % Injury <20% (number of individuals) [1, 3]: 10 | % Injury >40% (number of individuals) [1, 3]: 0 | % Injury Ave [1, 3]: 0% | % Injury 20-40% (number of individuals) [1, 4]: 0 | % Injury <20% (number of individuals) [1, 4]: 10 | % Injury >40% (number of individuals) [1, 4]: 0 | % Injury Ave [1, 4]: 0% | % Injury 20-40% (number of individuals) [1, 5]: 1 | % Injury <20% (number of individuals) [1, 5]: 9 | % Injury >40% (number of individuals) [1, 5]: 0 | % Injury Ave [1, 5]: 2%

C[C@@H](Oc1ccc(Cl)cc1Cl)C(=O)O [(R)-dichlorprop, R-2,4-dichlorophenoxypropionic acid]
activity of AAD-12 (v2) on substrate (absorbance at 510 nm, FIG. 3) (AAD-12 (v2)): minimal activity | % Injury 20-40% (number of individuals) [1, 6]: 0 | % Injury <20% (number of individuals) [1, 6]: 10 | % Injury >40% (number of individuals) [1, 6]: 0 | % Injury Ave [1, 6]: 0% | % Injury 20-40% (number of individuals) [1, 7]: 0 | % Injury <20% (number of individuals) [1, 7]: 10 | % Injury >40% (number of individuals) [1, 7]: 0 | % Injury Ave [1, 7]: 0% | % Injury 20-40% (number of individuals) [1, 8]: 0 | % Injury <20% (number of individuals) [1, 8]: 10 | % Injury >40% (number of individuals) [1, 8]: 0 | % Injury Ave [1, 8]: 0% | % Injury 20-40% (number of individuals) [1, 9]: 0 | % Injury <20% (number of individuals) [1, 9]: 10 | % Injury >40% (number of individuals) [1, 9]: 0 | % Injury Ave [1, 9]: 0%
